Assay results published in ChEMBL document CHEMBL1201862, “PubChem BioAssay data set” (2004).
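Exposure lasted 48 hours, with cells grown in 96-well plates and compounds tested at five concentrations. Abbreviation: GI50, concentration required for 50% inhibition of growth.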 The source made the active and inactive calls. Rule as the data show it: active = GI50 up to about 1.1 µM and inactive = higher.

How the values were obtained:
Assay in all cases: NCI anticancer screen, dose series, 48 h
ACHN = tested on: ACHN
UACC-257 = tested on: UACC-257
COLO 205 = tested on: COLO 205
OVCAR-5 = tested on: OVCAR-5
OVCAR-3 = tested on: OVCAR-3
MOLT-4 = tested on: MOLT-4
SF-295 = tested on: SF-295
SK-MEL-5 = tested on: SK-MEL-5
MDA-N = tested on: MDA-N
MDA-MB-435 = tested on: MDA-MB-435
UACC-62 = tested on: UACC-62
A498 = tested on: A498
HT-29 = tested on: HT-29
OVCAR-8 = tested on: OVCAR-8
HCC 2998 = tested on: HCC 2998
PC-3 = tested on: PC-3
SK-MEL-28 = tested on: SK-MEL-28
NCI-H522 = tested on: NCI-H522
IGROV-1 = tested on: IGROV-1
TK-10 = tested on: TK-10

Compound	GI50 (ACHN)	GI50 (UACC-257)	GI50 (COLO 205)	GI50 (OVCAR-5)	GI50 (OVCAR-3)	GI50 (MOLT-4)	GI50 (SF-295)	GI50 (SK-MEL-5)	GI50 (MDA-N)	GI50 (MDA-MB-435)	GI50 (UACC-62)	GI50 (A498)	GI50 (HT-29)	GI50 (OVCAR-8)	GI50 (HCC 2998)	GI50 (PC-3)	GI50 (SK-MEL-28)	GI50 (NCI-H522)	GI50 (IGROV-1)	GI50 (TK-10)
CCOC(=O)CCC(NC(=O)c1ccc(OCc2nc3cc(C(F)(F)F)ccc3nc2-c2ccccc2)cc1)C(=O)OCC (centres undefined)	94.2 µM (inactive)	67.3 µM (inactive)	17.9 µM (inactive)	> 100 µM (inactive)	79.1 µM (inactive)	40 µM (inactive)	40.6 µM (inactive)	31.6 µM (inactive)	55.5 µM (inactive)	84.1 µM (inactive)	52.8 µM (inactive)	> 100 µM (inactive)	> 100 µM (inactive)	> 100 µM (inactive)	> 10 µM (inactive)	42.7 µM (inactive)	> 100 µM (inactive)	> 100 µM (inactive)	75.2 µM (inactive)	
CC12CCC3c4cc(Br)c(O)c(Br)c4CCC3C1CCC2O (centres undefined)	22.5 µM (inactive)	17.8 µM (inactive)	25.2 µM (inactive)	25.7 µM (inactive)	18.9 µM (inactive)	17.7 µM (inactive)	16.3 µM (inactive)		3.98 µM (inactive)	4.23 µM (inactive)	14 µM (inactive)	18.7 µM (inactive)	15.4 µM (inactive)	14 µM (inactive)	12.7 µM (inactive)	29.4 µM (inactive)	17.9 µM (inactive)		15.8 µM (inactive)	19.8 µM (inactive)
Cn1c(N/N=C/c2ccc(Cl)cc2)nc(-c2ccc(Cl)cc2)c(C#N)c1=O	61.5 µM (inactive)	72.3 µM (inactive)	47 µM (inactive)	23.8 µM (inactive)	16.4 µM (inactive)	44.7 µM (inactive)	17.5 µM (inactive)	45.1 µM (inactive)	53.2 µM (inactive)	29.9 µM (inactive)	22 µM (inactive)	32.1 µM (inactive)	41.1 µM (inactive)	14.6 µM (inactive)		26.8 µM (inactive)	37.8 µM (inactive)	10.9 µM (inactive)	6.73 µM (inactive)	29 µM (inactive)
CCCSc1ccc2[nH]c(N3C(=O)/C(=C/c4ccc(O)c(OC)c4)N=C3c3ccccc3)cc2c1	25.2 µM (inactive)	4.56 µM (inactive)	4.27 µM (inactive)	4.07 µM (inactive)	6.7 µM (inactive)	4.23 µM (inactive)		4.51 µM (inactive)	2.32 µM (inactive)	2.69 µM (inactive)	3.07 µM (inactive)	6.35 µM (inactive)	3.02 µM (inactive)	21.3 µM (inactive)	2.8 µM (inactive)	13.2 µM (inactive)	17.2 µM (inactive)	4.07 µM (inactive)	4.2 µM (inactive)	
CC(C)/C(Cl)=N\OC(=O)NNc1ccccc1	14.1 µM (inactive)	1.3 µM (inactive)	0.119 µM (active)	> 100 µM (inactive)	> 35.8 µM (inactive)	< 0.01 µM (active)		0.0966 µM (active)	20 µM (inactive)	1 µM (active)		75.2 µM (inactive)	0.397 µM (active)	0.168 µM (active)	44.9 µM (inactive)	0.174 µM (active)		12.6 µM (inactive)	1.8 µM (inactive)	68.7 µM (inactive)
COC(=O)C(=O)C(C(=O)OC)C(=O)C(=O)Nc1c(Cl)cc([N+](=O)[O-])cc1Cl (centres undefined)	80.2 µM (inactive)	> 100 µM (inactive)		> 100 µM (inactive)	> 100 µM (inactive)		64 µM (inactive)	> 100 µM (inactive)	> 100 µM (inactive)	> 100 µM (inactive)	> 100 µM (inactive)	> 100 µM (inactive)	> 100 µM (inactive)	46 µM (inactive)	> 100 µM (inactive)	> 100 µM (inactive)	> 100 µM (inactive)	27 µM (inactive)	44.9 µM (inactive)	62.4 µM (inactive)
C(/c1ccco1)=c1/nc(-c2ccccc2)n2c1nc1ccccc12	21.9 µM (inactive)	> 100 µM (inactive)	98.9 µM (inactive)	69.8 µM (inactive)	9.06 µM (inactive)	10.3 µM (inactive)	12.9 µM (inactive)	20.6 µM (inactive)	17.6 µM (inactive)	14.4 µM (inactive)	63.1 µM (inactive)	> 100 µM (inactive)	26.6 µM (inactive)	45.1 µM (inactive)		1.04 µM (active)			11.3 µM (inactive)	34.8 µM (inactive)
Cc1c2oc(=O)c(C#N)cc2c2ccccn12	> 100 µM (inactive)	> 100 µM (inactive)	> 100 µM (inactive)	> 100 µM (inactive)	17.3 µM (inactive)	> 100 µM (inactive)	20.2 µM (inactive)	> 100 µM (inactive)	> 100 µM (inactive)	> 100 µM (inactive)	> 100 µM (inactive)	> 100 µM (inactive)	> 100 µM (inactive)	> 100 µM (inactive)	> 100 µM (inactive)	> 100 µM (inactive)	> 100 µM (inactive)		> 100 µM (inactive)	> 100 µM (inactive)
COC(=O)C(=O)C(C(=O)C(=O)Nc1nnc(S)[nH]1)c1nc2ccc([N+](=O)[O-])cc2nc1O (centres undefined)	86.9 µM (inactive)	> 100 µM (inactive)		> 100 µM (inactive)	> 100 µM (inactive)		> 100 µM (inactive)	> 100 µM (inactive)	> 100 µM (inactive)	> 100 µM (inactive)	> 100 µM (inactive)	> 100 µM (inactive)	> 100 µM (inactive)	> 100 µM (inactive)	> 100 µM (inactive)	> 100 µM (inactive)	> 100 µM (inactive)	> 100 µM (inactive)	91.4 µM (inactive)	> 100 µM (inactive)
CC1=CC(=O)CC(C)(C)C1/C=C/C(C)=C/C=C/C(C)=C/C=C/C=C(C)/C=C/C=C(C)/C=C/C1=C(C)CC(O)CC1(C)C (centres undefined)	28.6 µM (inactive)	37.7 µM (inactive)		57.3 µM (inactive)	25.2 µM (inactive)	0.0853 µM (active)	60.8 µM (inactive)	33 µM (inactive)	29.9 µM (inactive)	25 µM (inactive)		94.2 µM (inactive)	30.8 µM (inactive)	32.2 µM (inactive)	23.8 µM (inactive)	45.3 µM (inactive)	28.4 µM (inactive)	23.2 µM (inactive)	39.1 µM (inactive)	50.2 µM (inactive)
COC(=O)C1C(OC(=O)C(Cl)(c2ccccc2)c2ccccc2)CC2CCC1N2C (centres undefined)	> 100 µM (inactive)	> 100 µM (inactive)	> 100 µM (inactive)	> 100 µM (inactive)	> 100 µM (inactive)	> 100 µM (inactive)	> 100 µM (inactive)	> 100 µM (inactive)	> 100 µM (inactive)	> 100 µM (inactive)	> 100 µM (inactive)		> 100 µM (inactive)	> 100 µM (inactive)	> 100 µM (inactive)	> 100 µM (inactive)	> 100 µM (inactive)	> 100 µM (inactive)	> 100 µM (inactive)	> 100 µM (inactive)
O=C1Cc2c([nH]c3c(Br)cccc23)-c2ccccc2N1	> 100 µM (inactive)	> 100 µM (inactive)	27.8 µM (inactive)	> 100 µM (inactive)	> 100 µM (inactive)	16.4 µM (inactive)	> 100 µM (inactive)	30.1 µM (inactive)	> 100 µM (inactive)	> 100 µM (inactive)	48.8 µM (inactive)	> 100 µM (inactive)	59.8 µM (inactive)	48.2 µM (inactive)	44.9 µM (inactive)	49.8 µM (inactive)			> 100 µM (inactive)	
O=C(C(=O)N1CCc2ccccc21)c1c[nH]c2ccccc12	> 10 µM (inactive)	> 10 µM (inactive)	> 10 µM (inactive)	> 10 µM (inactive)	> 10 µM (inactive)	> 10 µM (inactive)	> 10 µM (inactive)	> 10 µM (inactive)	> 10 µM (inactive)	> 10 µM (inactive)	> 10 µM (inactive)		> 10 µM (inactive)	> 10 µM (inactive)	> 10 µM (inactive)	> 10 µM (inactive)	> 10 µM (inactive)	> 10 µM (inactive)	> 10 µM (inactive)	> 10 µM (inactive)
COc1ccc2c(=O)cc(-c3ccc(OC)c(OC)c3OC)oc2c1	> 63.2 µM (inactive)	> 100 µM (inactive)	> 71.8 µM (inactive)	> 69 µM (inactive)	> 44.4 µM (inactive)	55.5 µM (inactive)	48.1 µM (inactive)	49 µM (inactive)	95.3 µM (inactive)	> 100 µM (inactive)	48.8 µM (inactive)		98.9 µM (inactive)	> 100 µM (inactive)	> 63.8 µM (inactive)	60.4 µM (inactive)	> 100 µM (inactive)	> 39.8 µM (inactive)	> 83.4 µM (inactive)	> 100 µM (inactive)
O=C(O)CN1CCN(CC(=O)O)CCN(CC(=O)O)CCN(CC(=O)O)CC1 [TETRAXETAN]	> 100 µM (inactive)	> 100 µM (inactive)	> 100 µM (inactive)	> 100 µM (inactive)	> 100 µM (inactive)	> 100 µM (inactive)	> 100 µM (inactive)	> 100 µM (inactive)	> 100 µM (inactive)	> 100 µM (inactive)	> 100 µM (inactive)	> 100 µM (inactive)	> 100 µM (inactive)	> 100 µM (inactive)	> 100 µM (inactive)	> 100 µM (inactive)		> 100 µM (inactive)	> 100 µM (inactive)	> 100 µM (inactive)
